Assay [1] concerns YAP1 target genes CTGF and CYR61 in A549 cells. Kind of assay: mRNA level of YAP1 and YAP1 target genes (CTGF, CYR61) by qRT-PCR in A549 cells. It is filed as cell-based. As to the method: A549 cells were treated with TD034 at 5 and 10 μM for 24 hr. Western blot was used to check for YAP1 protein level. qRT-PCR was used to check for YAP1 downstream genes transcription (CTGF and CYR61). Total RNA was extracted using IBI Isolate Total Extraction Reagent Kit (IB47602). […] of RNA was reverse transcribed using OneScript Plus cDNA Synthesis Kit (ABM G236) according to the manufacturer’s protocol. Real-time PCR was performed using BlasTaq 2X qPCR MasterMix (ABM G892) on a QuantStudio 3 Real-Time PCR System. All qPCR reactions were performed in triplicates. The list of primers is included in the Supporting Information.

Assay [2] has as its system α-tubulin, p53, and histone H3 acetylation levels. Kind of assay: Acetylation levels of α-tubulin, p53 and histone H3 by Western blot in cells. It is filed as cell-based. The settings on record: 3 h of treatment. The source says: . As a positive control, we used trichostatin A (TSA), a nonselective HDAC inhibitor against both class I and class IIb HDACs.[25] […]
(In general: Immunoblotting shows a protein as a band on a membrane.)

In a further assay the target is HDAC1 (Homo sapiens, UniProt Q13547). As to the kind of experiment: HDAC1 enzyme activity assay (Ac-H3K9, HPLC). Conditions: read-out: HDAC1, % inhibition.
In another assay the target is T1, SIRT1 (Homo sapiens, UniProt Q96EB6).
T1 sequence (Q96EB6 1-747): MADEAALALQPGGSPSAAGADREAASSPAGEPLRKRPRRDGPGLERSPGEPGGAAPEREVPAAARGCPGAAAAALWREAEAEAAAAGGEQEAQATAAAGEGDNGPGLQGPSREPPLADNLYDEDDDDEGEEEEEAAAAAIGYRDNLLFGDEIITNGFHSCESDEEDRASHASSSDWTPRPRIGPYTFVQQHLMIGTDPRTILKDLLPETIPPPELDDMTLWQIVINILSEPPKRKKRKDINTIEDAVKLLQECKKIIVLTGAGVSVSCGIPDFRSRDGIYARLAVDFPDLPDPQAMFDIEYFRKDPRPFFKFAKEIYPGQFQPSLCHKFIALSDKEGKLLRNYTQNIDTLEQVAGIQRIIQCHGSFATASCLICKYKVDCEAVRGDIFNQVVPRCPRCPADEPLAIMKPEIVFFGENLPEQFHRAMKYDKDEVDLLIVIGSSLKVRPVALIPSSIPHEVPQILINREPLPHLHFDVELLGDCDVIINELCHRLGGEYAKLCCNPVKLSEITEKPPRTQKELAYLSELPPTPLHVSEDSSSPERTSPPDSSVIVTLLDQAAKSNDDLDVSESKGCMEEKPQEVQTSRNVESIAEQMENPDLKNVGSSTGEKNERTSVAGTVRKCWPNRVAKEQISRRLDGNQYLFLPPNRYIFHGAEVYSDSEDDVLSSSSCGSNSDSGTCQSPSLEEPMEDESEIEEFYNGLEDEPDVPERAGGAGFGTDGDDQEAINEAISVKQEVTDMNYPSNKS
As to the kind of experiment: SIRT1 enzyme activity assay (Ac-H3K9, NAD+, HPLC). The settings on record: read-out: SIRT1, % inhibition.

A further assay addresses HDAC4 (Homo sapiens, UniProt P56524). Kind of assay: HDAC4 enzyme activity assay (trifluoroacetyl-H3K9, HPLC). The settings on record: read-out: HDAC4, % inhibition.

Sequence of HDAC1 (Q13547 whole entry): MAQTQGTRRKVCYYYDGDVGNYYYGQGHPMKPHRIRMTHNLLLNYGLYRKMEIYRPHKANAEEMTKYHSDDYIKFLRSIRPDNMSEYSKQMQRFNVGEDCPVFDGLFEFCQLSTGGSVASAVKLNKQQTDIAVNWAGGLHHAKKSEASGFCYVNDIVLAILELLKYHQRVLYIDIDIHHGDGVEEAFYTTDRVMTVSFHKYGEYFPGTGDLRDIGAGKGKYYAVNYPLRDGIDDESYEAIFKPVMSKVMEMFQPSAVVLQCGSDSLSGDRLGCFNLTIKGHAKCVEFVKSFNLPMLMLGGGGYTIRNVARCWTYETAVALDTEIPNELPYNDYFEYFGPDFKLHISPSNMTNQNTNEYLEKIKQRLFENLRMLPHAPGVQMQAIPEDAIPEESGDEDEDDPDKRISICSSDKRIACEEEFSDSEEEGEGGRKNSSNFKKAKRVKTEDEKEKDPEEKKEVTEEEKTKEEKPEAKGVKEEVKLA
Sequence of HDAC4 (P56524 whole entry): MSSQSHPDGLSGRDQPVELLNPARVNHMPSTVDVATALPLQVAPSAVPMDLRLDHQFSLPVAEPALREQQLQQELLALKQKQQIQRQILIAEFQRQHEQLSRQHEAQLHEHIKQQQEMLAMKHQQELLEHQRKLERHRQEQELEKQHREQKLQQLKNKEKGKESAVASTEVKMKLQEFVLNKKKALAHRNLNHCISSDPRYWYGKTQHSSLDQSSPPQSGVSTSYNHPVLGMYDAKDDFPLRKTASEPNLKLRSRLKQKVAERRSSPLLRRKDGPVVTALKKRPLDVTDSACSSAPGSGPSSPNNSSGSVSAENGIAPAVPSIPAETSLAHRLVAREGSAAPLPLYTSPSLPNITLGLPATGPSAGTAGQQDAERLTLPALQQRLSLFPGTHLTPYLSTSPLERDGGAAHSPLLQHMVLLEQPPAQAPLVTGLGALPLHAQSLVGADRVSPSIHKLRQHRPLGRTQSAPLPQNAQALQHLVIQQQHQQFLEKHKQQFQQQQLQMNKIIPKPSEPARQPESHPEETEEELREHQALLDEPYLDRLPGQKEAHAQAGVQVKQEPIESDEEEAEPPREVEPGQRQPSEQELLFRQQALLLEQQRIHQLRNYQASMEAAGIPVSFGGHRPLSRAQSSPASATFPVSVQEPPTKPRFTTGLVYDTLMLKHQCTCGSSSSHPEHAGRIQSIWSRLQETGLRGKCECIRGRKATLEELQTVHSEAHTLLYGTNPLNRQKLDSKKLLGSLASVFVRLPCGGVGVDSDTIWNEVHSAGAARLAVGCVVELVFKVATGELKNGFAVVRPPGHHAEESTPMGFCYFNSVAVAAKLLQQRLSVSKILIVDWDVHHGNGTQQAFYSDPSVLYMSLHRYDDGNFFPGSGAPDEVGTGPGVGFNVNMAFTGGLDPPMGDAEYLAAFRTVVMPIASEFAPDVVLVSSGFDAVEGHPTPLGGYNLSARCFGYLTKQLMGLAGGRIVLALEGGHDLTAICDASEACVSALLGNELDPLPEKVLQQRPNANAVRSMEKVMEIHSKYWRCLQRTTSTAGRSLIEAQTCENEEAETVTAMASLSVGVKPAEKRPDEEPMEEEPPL
Experimental for HDAC1: (§1) For HDAC1, 6, 8, and SIRT1-2, Ac-H3K9 was used as a substrate. […] The reaction was conducted for 15 min (HDAC11), 30 min (HDAC1, 4, 6, 8), and 5 min (SIRT1-2). Then, 20 μL of 0.2% TFA/acetonitrile was added to quench the reaction. The samples were analyzed by HPLC using a Chromolith HighResolution RP-18 end-capped 100 mm × 4.6 mm column (EMD Millipore). Mobile phase A was 0.1% TFA in water and mobile phase B was 0.1% TFA in acetonitrile. The total flow rate was 1 mL/min, and the gradient was 0% B (2 min), 0–60% B (7 min), 100% B (4 min), and 0% B (2 min). The relative ratio of product/substrate in each sample was compared to control sample (no inhibitor) to determine the inhibition level.
Experimental for HDAC4: as §1
Experimental for SIRT1: as §1

`CCCCCCCCCCC[C@H]1O[C@@H]1C(=O)CCCCC[C@@H]1NC(=O)[C@H]2CCCCN2C(=O)[C@H](Cc2ccccc2)NC(=O)[C@H](Cc2ccccc2)NC1=O` [TD034]: in assay [1], the “YAP1 mRNA level” value is “not affected”. The “mRNA levels of YAP1 target genes CTGF and CYR61” value in assay [1] (5 and 10 μM, 24 hr) is reported as “decrease”. Besides, in assay [2], the “level of acetylated α-tubulin (HDAC6 and SIRT2 target)” value is on record as “did not have such an effect”; the “levels of acetylated histone H3 and acetylated p53 (class I HDACs and SIRT1 target)” value is on record as “did not have such an effect”. Further, on HDAC1, the inhibition at 1 µM was found to be 0%, the inhibition at 10 µM turned out to be 0% and the inhibition at 25 µM was found to be 0%. For the same molecule, on SIRT1, the inhibition at 1 µM came to 0%, the inhibition at 10 µM worked out at 0% and the inhibition at 25 µM was determined as 0%. Besides, at HDAC4, the inhibition at 1 µM stood at 0%, the inhibition at 10 µM amounted to 0% and the inhibition at 25 µM came to 0%.

Broadly, the inhibition is the share of the control response that was lost under treatment.
